The record followed here is patent publication US7070807B2, “Branched histidine copolymers and methods for using same” (priority 1999, dated 2006).

Ends that are not written are not given here.

One data set deals with CHO cells. Put plainly: In vitro transfection with polymer:liposome:PCI-Luc complexes, luciferase activity. It counts as cell-based, Chinese hamster. Here is the method:
(§1) 4.5×10^4 cells (MDA-MB-435, NIH3T3 or CHO) were initially plated into 24 well dishes. After 48 hours, when the cells were 60 and 80% confluent, cells were transfected with a plasmid encoding luciferase (PCI-Luc). In transfection experiments, the copolymer was initially incubated with PCI-Luc for 30 minutes in OptiM. The amount of copolymer which varied from 0.25 nmole to 15 nmole was mixed with the plasmid or oligonucleotide. The concentration of DNA varied from 0.25 μg to 0.75 μg. No visible aggregation of the polymer with the plasmid DNA was apparent at these concentrations. Cationic liposomes were then added, gently mixed, and then allowed to stand for an additional 30 minutes. The polymer:liposome:DNA complex was then diluted with either OptiM or OptiM+10% serum. In experiments utilizing lysomotropic agents, either chloroquine (Sigma, St. Louis, Mo.) or bafilomycin Al (Sigma) was added to the media at concentrations of 10 ng/ml and 25 μM, respectively. Four hours after transfection, the complexes were removed and DMEM with 10% serum was added. Forty-eight hours later, luciferase levels were measured with the Turner 20/20 luminometer. Duplicates were done for each concentration and each experiment was performed twice.

The next data set has as its system NIH-3T3 cells. Described as above. It counts as cell-based. The procedure: as §1
A short description of data set [1]: Effect of adding transition metal on transfection efficiency of polymer:liposome:DNA complexes. The format is cell-based. The following applies: Zn2+ 0 to 2.00 μg/ml added to H-K2b, H-K3b or H-K4b:liposome:DNA. The procedure:
To determine the effect of adding transition metals on the transfection efficiency of a polymer:DNA complex, 0.25 μg H-K2b, 0.125 μg H-K3b, or 0.125 μg H-K4b were initially mixed with 0.75 μg DNA. After 30 minutes, cationic liposomes were added for 30 minutes. Zn^2+ was then added in an amount ranging from 0 to 2.00 μg/ml. As a control, various amounts of zinc were added to the liposome:DNA complex.

The subject of data set [2] is MDA-MB-435 cells. Kind of data set: In vitro transfection with polymer:liposome:PCI-Luc complexes, luciferase activity. It counts as cell-based, human. The following applies: for transfection efficiency compared to H-K (19-mer): polymer:liposome:PCI-Luc; for transfection efficiency of the liposome: PCI-Luc complex, polymer vs no polymer (length comparison): 7.5 nmole polymer; for increase of transfection efficiency of branched polymer compared to the linear H-K polymer: with liposomes and 0.75 μg DNA, optimal dose; for transfection efficiency / uptake of liposomes (sequence order comparison): polymer mixed with DNA then liposomes, cell line not stated. Here is the method: as §1

The subject of data set [3] is MDA-MB-435 cells. Kind of data set: In vitro transfection with polymer:DNA complex in the absence of liposomes, luciferase activity. The format is cell-based, human. Particulars: no liposomes. The procedure: as §1
Effect on transfection efficiency of a polymer:DNA complex: To determine the effect of branching on the transfection efficiency of a polymer:DNA complex, 7.5 nmol of H-K or 0.375 nmol of HH-K4b was mixed with PCI-Luc, and luciferase activity was measured as described above.
HH-K4b and HHH-K4b, respectively, have a histidine to lysine ratio of 1.5 and 2.4, respectively. […] In vitro transfection experiments were performed on MDA-MB-435 cells as described previously in 6.2 and 6.4.3. For the formation of the complex, 3.75 μg of polymer was mixed with 0.75 μg of PCI-Luc, and experiments were performed in a 24-well plates.

Data set [4] has as its system MDA-MB-435 cells. Put plainly: Uptake of polymer:fluorescein-labeled oligonucleotide complex, CytoFluor fluorescence. Particulars: no liposomes; 0.75 μg 32-mer; 4 hour incubation, measured 24 hours later. The format is cell-based, human. The procedure:
Effect on uptake of a polymer:oligonucleotide complex: In a second experiment, the same amount of HK or HHK4b was mixed with 0.75 μg of a 5′-end fluorescein-labeled randomly generated oligonucleotide(32-mer) for 30 minutes. This complex was added to the MDA-MB-435 cells for 4 hour incubation. Twenty-four hours later, the cells were then washed, and measured by CytoFluor fluorescence Measurement System. (Millipore, Bedford, Miss.).

Data set [5] deals with MDA-MB-435 tumors in nude mice. Kind of data set: In vivo tumor growth after intratumoral injection of HH-K4b:oligonucleotide complexes (DNAzyme against VEGF receptor mRNA). Particulars: SEM in parentheses. Here is the method: In vivo delivery of pharmaceutical agents. […] In this example, the receptor of VEGF mRNA with a DNA oligonucleotide that has enzymatic activity (also called DNAzyme) (36) was targeted. The VEGF receptor is essential for tumor angiogenesis and consequently tumor growth. After breast cancer cells (MDA-MB-435 cells) were injected into nude mice and the tumors grew to a visible size, the tumor was injected with the therapeutic polymer-DNA complex. The tumor was injected every 5 days for a total of 5 injections. There were 4 treatment groups: 1) untreated, 2) HH-K4B carrier alone, 3) HH-K4b+DNAzyme, and 4) HH-K4b+antisense oligonucleotides. To prepare the complex for injection, 45 μg of the HH-K4b polymer diluted in 150 μl of water was mixed with 24 μg of oligonucleotide, also diluted in 150 μl of water. After formation of the complex for 2 hours, 25 μl of the treatment complex was injected into each tumor. The therapeutic oligonucleotide sequence is 5′-TGCTCTCCA-GGCTAGCTACAACGA-CCTGCACCT-3′ (SEQ ID NO:18) whereas the control antisense oligonucleotide sequence is 5′-TGCTCTCCA-GGCTATGTACAACGA-CCTGCACCT-3′. (SEQ ID NO:19) The only difference between the therapeutic DNAzyme sequence and the antisense sequences is that the nucleotides responsible for cleaving the mRNA have been altered with the antisense DNA.

The test system of data set [6] is mice with 66.1 cell lung metastases. Put plainly: Intravenous delivery of polymer:liposome:PCI-Luc, lung luciferase activity. The format is in vivo. Particulars: complex with DOTAP/cholesterol liposomes, tumor laden mice, lungs six hours later. Here is the method: FIG. 19. Branched transport polymer in combination with liposomes enhanced transfection efficiency when administered intravenously. Two weeks prior to injection of complex, 1.0×10^5 of 66.1 cells (a murine breast cancer cell line) were injected into mice to establish lung metastases. 6 μg of HH-K4b (volume-60 μl) was mixed with 30 μg of PCI-Luc (volume-60 μl). After 40 min, 18 μg of liposomes (DOTAP:cholesterol, volume-60 μl) was added and gently mixed for another 30 min. Total volume of the polymer: liposome: DNA solution is 180 μl. 0.28 μl of 1 M Hepes was mixed with H-K or HH-K4b solution, respectively, to neutralize to approximately pH-7.0. Liposome in complex with PCI-Luc complexes were prepared similarly. 150 μl of the complex solution was injected via the tail vein into the mice. Six hours later, the lungs were homogenized and the luciferase activity was measured in each group.
The liposomes were composed of DOTAP and cholesterol in a 1 to 1 molar ratio.

The next data set concerns endothelial cells (BAEC). Kind of data set: In vitro transfection with polymer:liposome:DNA complexes, luciferase activity. The format is cell-based, bovine. The procedure: To further investigate the extent to which histidine order could affect transfection efficiency, four polymer solutions containing a different linear histidine copolymer (H-K (19-mer) (SEQ ID NO:3), HHH-K (20-mer) (SEQ ID NO:6), HH-K (20-mer) (SEQ ID NO:5), or K-HK (21-mer) (SEQ ID NO:9)) were mixed in amounts ranging from 0.125 μl to 2.5 μl with 0.75 μg DNA. The concentration of each of the polymer solutions was […]. After 30 minutes, 1.5 μg of liposomes were added. After adding the delivery compositions to endothelial cells (BAEC) for 4 hours, the cells were washed, and luciferase activity measured 48 hours later (FIG. 14).

`CO/C1=C\C(C)=C\[C@@H](C)[C@@H](O)[C@@H](C)C/C(C)=C/C=C/[C@H](OC)[C@@H]([C@@H](C)[C@@H](O)[C@H](C)[C@@]2(O)C[C@@H](O)[C@H](C)[C@@H](C(C)C)O2)OC1=O` [bafilomycin A1]: the “effect of lysosomotropic agent on transfection of the H-K: liposome: PCI-Luc triplex” value with CHO cells (CHO cells) and in the data set with NIH-3T3 cells was “significantly increased” in each case. The “increase of transfection efficiency of the H-K: liposome: PCI-Luc triplex by lysosomotropic agent” value in the data set on CHO cells (CHO cells, 10 ng/ml bafilomycin added with transfection agents) is listed as 5 fold. Moreover, the “effect of lysosomotropic agent on transfection efficiency of the liposome: PCI-Luc complex” value with CHO cells (absence of the histidine copolymer) is recorded as “did not enhance the transfection efficiency”.
Consider `CCN(CC)CCCC(C)Nc1ccnc2cc(Cl)ccc12` (stereo not drawn) [chloroquine], for which the “effect of lysosomotropic agent on transfection of the H-K: liposome: PCI-Luc triplex” value in the data set with CHO cells (CHO cells) and in the data set with NIH-3T3 cells was “significantly increased” each time.
As for `[Zn+2]` [zinc], the “effect of added zinc on transfection efficiency of polymer:liposome:DNA complexes” value in data set [1] is “can enhance transfection efficiency”.
For “H-R (19-mer): arginine-histidine copolymer, SEQ ID NO: 13 (RHRHRHRHRGRHRHRHRHR)”, the “transfection efficiency compared to H-K (19-mer)” value with MDA-MB-435 cells [2] was “significantly better than H-K”.
For “KHKHKHKHKGKHKHKHKHK-NH2 [H-K (19-mer), [K-H-K-H-K-H-K-H-K-G-K-H-K-H-K-H-K-H-K]]”, the “morphologic evidence of cellular toxicity due to the polymer” value with MDA-MB-435 cells [2] (even at concentrations of 0.5 mM) is reported as “No morphologic evidence of cellular toxicity”.
For “[KHKHHKHHKHHKHHKHHKHK]4K3 [HH-K4b]”, in the data set with MDA-MB-435 cells [3] (3.75 μg polymer, 0.75 μg PCI-Luc), the “in vitro transfection compared to HHH-K4b” value is given as “significantly more effective transfection agent in vitro”. In the data set on MDA-MB-435 cells [3] (0.375 nmol HH-K4b vs 7.5 nmol H-K), the “transfection efficiency of polymer:DNA complex compared to linear H-K polymer” value was “better”. Moreover, the “luciferase expression as sole carrier of DNA compared to HH-K3b, HH-K2b and H-K4b” value with MDA-MB-435 cells [3] (data not shown) is recorded as “better at enhancing luciferase expression”. Further, in the data set on MDA-MB-435 cells [4], the “uptake of oligonucleotides compared to linear HK polymer: oligonucleotides complex” value is on record as “significantly enhanced uptake”. The “tumor volume, 1st Injection” value in data set [5] (measured before 1st injection (baseline)) was 9.5 (1.1). Moreover, in data set [5] (measured before 2nd injection, intratumoral every 5 days), the “tumor volume, 2nd Injection” value was 63.7 (10.7). The “tumor volume, 3rd Injection” value in [5] (measured before 3rd injection, intratumoral every 5 days) is reported as 134 (30). In addition, the “tumor volume, 4th Injection” value in data set [5] (measured before 4th injection, intratumoral every 5 days) was 236 (55). For the same compound, in data set [5] (measured before 5th injection, intratumoral every 5 days), the “tumor volume, 5th Injection” value was 429 (94). Further, in [6], the “gene (luciferase) expression compared to liposomes only” value is 7 fold.
In the case of “[K-H-K-H-K-H-K-G-K-H-K-H-K] (KHKHKHKGKHKHK) [H-K (13 mer)]”, in the data set on MDA-MB-435 cells [2], the “transfection efficiency of the liposome: PCI-Luc complex, polymer vs no polymer (length comparison)” value is listed as “increased the transfection efficiency”.
As to “[KHKHKHKHKGKHKHKHKHKGKHKHKHKHK] (KHKHKHKHKGKHKHKHKHKGKHKHKHKHK) [H-K (29 mer)]”, in the data set with MDA-MB-435 cells [2], the “transfection efficiency of the liposome: PCI-Luc complex, polymer vs no polymer (length comparison)” value is recorded as “increased the transfection efficiency”. In addition, the “transfection efficiency compared to the 13 mer” value with MDA-MB-435 cells [2] (7.5 nmole polymer with liposome and DNA) is “increased transfection efficiency more than the 13 mer”.
On to “[K-H-K-H-K-H-K-H-K-G-K-H-K-H-K-H-K-H-K]2 K [H-K2b]”, for which, in the data set with MDA-MB-435 cells [2] (absence of serum), the “increase of transfection efficiency of branched polymer compared to the linear H-K polymer” value is listed as “approximately 10 fold”. Besides, in the data set on MDA-MB-435 cells [2] (presence or absence of serum, H-K2b 0.25 μg + DNA 0.75 μg + liposomes 1.5 μg vs PEI 0.5 μg), the “transport of DNA into cells (luciferase) relative to PEI” value is “more than 10 fold”.
Consider “[K-H-K-H-K-H-K-H-K-G-K-H-K-H-K-H-K-H-K]3 K2 [H-K3b]”, for which, in the data set on MDA-MB-435 cells [2] (absence of serum), the “increase of transfection efficiency of branched polymer compared to the linear H-K polymer” value is reported as “approximately 10 fold”.
On the same count and under the same terms, in the case of “[K-H-K-H-K-H-K-H-K-G-K-H-K-H-K-H-K-H-K]4 K3 [H-K4b]” it was “approximately 10 fold”.
For “[KKHHHKHHHKKHHHKHHHKK] (KKHHHKHHHKKHHHKHHHKK) [HHH-K]”, the entries for the “transfection of DNA in combination with liposomes, rank among four polymers” value with endothelial cells (BAEC) (highest concentration of polymer used) and with endothelial cells (BAEC) (lower concentrations of polymer) were “most effective of the four” and “not as effective as the other three polymers tested”, respectively.
As for “[K-K-K-K-K-K-K-K-K-G-K-K-K-K-K-K-K-K-K] (KKKKKKKKKGKKKKKKKKK) [poly-L-lysine, reference compound]”, the “effect of serum on transfection efficiency of polymer:liposome carrier” value with MDA-MB-435 cells [2] (presence vs absence of 10% serum) is “markedly decreased in the presence of serum”.
As for “[K-S-K-S-K-S-K-S-K-G-K-S-K-S-K-S-K-S-K] (KSKSKSKSKGKSKSKSKSK) [S-K (19-mer)]”, the “transfection efficiency compared to no polymer” value in the data set on MDA-MB-435 cells [2] (absence of serum, with liposome: PCI-Luc) was “enhanced the transfection efficiency slightly more than when no polymer was added”. Further, the “transfection efficiency compared to H-K (19-mer)” value in the data set on MDA-MB-435 cells [2] was “significantly less effective”.
Turning to “[YGRKKRRQRRRGKHKHKHKHKHKHKHKHK] (YGRKKRRQRRRGKHKHKHKHKHKHKHKHK) [Y-HK]”, in the data set on MDA-MB-435 cells [2] (presence or absence of serum), the “transfection efficiency / uptake of liposomes (sequence order comparison)” value was “accelerated useful transfection efficiency”.
For “[YGRKKRRQRRRHHKHHKHHKHHKHHK] (YGRKKRRQRRRHHKHHKHHKHHKHHK) [Y-HH]”, the “transfection efficiency / uptake of liposomes (sequence order comparison)” value with MDA-MB-435 cells [2] (presence or absence of serum) is reported as “significantly enhanced the uptake of liposomes”.
